This note sets out measurements from ChEMBL document CHEMBL1201862, “PubChem BioAssay data set” (2004).

In general, IC50 refers to the point on the concentration scale where inhibition reaches its midpoint. As a reminder, the AC50 is the concentration giving half of the maximal activity seen. In general, EC50 refers to the concentration that produces a half-maximal response.

Experiment [1] addresses Fructose-bisphosphate aldolase (Mycobacterium tuberculosis, UniProt P9WQA3). Nature of the experiment: Fluorescence-based biochemical high throughput dose response assay for inhibitors of the fructose-bisphosphate aldolase (FBA) of M. tuberculosis. The experiment is classed as functional.
Experiment [2] is described as follows: CFTR ΔF508 corrector activity in bronchial cells, dose response, human bronchial epithelial cells, plate reader, cherry-pick, two tests (AID 743267). The experiment is classed as functional, cell-based.
For experiment [3], the target named is T1, Zinc finger protein mex-5 (Caenorhabditis elegans, UniProt Q9XUB2).
T1 sequence (Q9XUB2 whole entry): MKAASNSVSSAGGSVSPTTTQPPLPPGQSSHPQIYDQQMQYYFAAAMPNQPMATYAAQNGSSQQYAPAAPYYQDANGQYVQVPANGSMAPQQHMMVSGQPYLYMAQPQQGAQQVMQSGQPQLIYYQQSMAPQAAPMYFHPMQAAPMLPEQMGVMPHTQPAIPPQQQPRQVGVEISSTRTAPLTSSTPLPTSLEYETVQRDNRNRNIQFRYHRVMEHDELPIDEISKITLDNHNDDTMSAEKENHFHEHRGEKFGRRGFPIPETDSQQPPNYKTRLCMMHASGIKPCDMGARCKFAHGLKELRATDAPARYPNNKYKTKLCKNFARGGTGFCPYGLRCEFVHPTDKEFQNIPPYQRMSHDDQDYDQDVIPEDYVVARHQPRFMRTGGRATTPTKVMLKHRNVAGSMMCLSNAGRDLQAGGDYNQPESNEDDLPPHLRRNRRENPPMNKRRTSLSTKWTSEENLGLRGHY
As to the kind of experiment: MEX-5/TCR-2 RNA interaction inhibitors, dose response, biochemical, C. elegans, fluorescence polarization (AID 1960). (In fluorescence polarisation assays a small probe gives low polarisation when free and higher when bound to something large.)

Experiment [4] deals with Arf-GAP with SH3 domain, ANK repeat and PH domain-containing protein 1 (Homo sapiens, UniProt Q9ULH1). It counts as functional.
The target in experiment [5] is T2, RNA-binding protein pos-1 (Caenorhabditis elegans, UniProt G5EF15).
T2 sequence (G5EF15 whole entry): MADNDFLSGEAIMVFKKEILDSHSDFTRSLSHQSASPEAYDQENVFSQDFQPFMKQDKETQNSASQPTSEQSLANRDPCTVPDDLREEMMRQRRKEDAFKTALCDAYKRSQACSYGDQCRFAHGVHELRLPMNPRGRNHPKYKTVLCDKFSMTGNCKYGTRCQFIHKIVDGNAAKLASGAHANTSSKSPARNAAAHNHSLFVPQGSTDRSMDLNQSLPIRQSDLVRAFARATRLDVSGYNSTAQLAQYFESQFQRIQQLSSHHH
Nature of the experiment: inhibitors of POS-1/mex-3 RNA binding, dose response, biochemical, fluorescence polarization (AID 1964).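 Note: purified POS-1 fused to maltose binding protein made in E. coli; potency of compounds blocking POS-1 binding to fluorescent RNA.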

The target of experiment [6] is T3, High affinity choline transporter 1 (Homo sapiens, UniProt Q9GZV3).
T3 sequence (Q9GZV3 whole entry): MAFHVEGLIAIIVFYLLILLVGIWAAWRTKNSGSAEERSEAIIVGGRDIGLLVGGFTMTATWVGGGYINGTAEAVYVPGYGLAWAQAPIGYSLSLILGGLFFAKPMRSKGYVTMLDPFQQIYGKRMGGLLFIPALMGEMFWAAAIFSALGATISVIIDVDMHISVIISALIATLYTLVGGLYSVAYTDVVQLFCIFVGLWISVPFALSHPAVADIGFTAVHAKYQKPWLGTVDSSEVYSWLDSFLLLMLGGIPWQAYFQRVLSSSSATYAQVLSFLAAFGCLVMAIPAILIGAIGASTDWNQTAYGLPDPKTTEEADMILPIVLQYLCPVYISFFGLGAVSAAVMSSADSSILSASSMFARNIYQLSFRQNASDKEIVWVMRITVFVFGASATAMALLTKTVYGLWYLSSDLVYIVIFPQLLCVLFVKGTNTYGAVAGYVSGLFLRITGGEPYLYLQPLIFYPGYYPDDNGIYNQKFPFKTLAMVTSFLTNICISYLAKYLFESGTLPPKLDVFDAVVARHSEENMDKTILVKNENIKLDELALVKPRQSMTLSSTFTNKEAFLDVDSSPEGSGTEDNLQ
As to the kind of experiment: CHT choline uptake inhibitors, dose response, cell-based, HEK-293 hCHT, [3H]-choline uptake (AID 652177). The experiment is classed as functional.

Experiment [7] deals with Paired box protein Pax-8 (Homo sapiens, UniProt Q06710). As to the kind of experiment: inhibitors of PAX8-driven TPO luciferase reporter, dose response, RMG-I cells, cherry-pick (AID 687027).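 Note: luciferase reporter driven by Pax8 target thyroperoxidase promoter measured by SteadyGlo luminescence.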 It counts as functional, cell-based. (A reporter such as luciferase makes a cellular process visible.)
Experiment [8] is described as follows: IGROV1 ovarian cancer cell cytotoxicity, dose response, PAX8 inhibitor project, plate reader, dry powder samples (AID 743043). It counts as functional, cell-based. The following applies: IGROV-1.
A short description of experiment [9]: ZM109 Env clade C HIV-1 fusion inhibitors, dose response, HeLa effector, CEM target cells, luciferase, cherry-pick (AID 652058). The experiment is classed as functional, cell-based.
Experiment [10] in a line: inhibitors of HIV Env-driven cell fusion, dose response, cherry-pick (AID 652057). The experiment is classed as functional, cell-based.
Experiment [11] is described as follows: off-target signal loss in HeLa-CEM21 co-culture – HeLa F-luc CTL cells, cherry-picked, counter-screen for HIV-1 Env fusion inhibitor project, dose response (AID 652040).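 Note: potency for signal decrease marking cytotoxic or nonspecific inhibition.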 It counts as functional, cell-based.
Experiment [12] can be described thus: inhibitors of clade B AD8 Env fusion, dose response, cell-based, cherry-pick (AID 652062).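 Note: luciferase signal from cell-cell fusion driven by HIV-1 clade B AD8 Env; potency is for inhibitors of fusion seen as a drop in luminescence.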 The experiment is classed as functional.

Active and inactive are the calls of the source.

Sequence of Paired box protein Pax-8 (Q06710 whole entry): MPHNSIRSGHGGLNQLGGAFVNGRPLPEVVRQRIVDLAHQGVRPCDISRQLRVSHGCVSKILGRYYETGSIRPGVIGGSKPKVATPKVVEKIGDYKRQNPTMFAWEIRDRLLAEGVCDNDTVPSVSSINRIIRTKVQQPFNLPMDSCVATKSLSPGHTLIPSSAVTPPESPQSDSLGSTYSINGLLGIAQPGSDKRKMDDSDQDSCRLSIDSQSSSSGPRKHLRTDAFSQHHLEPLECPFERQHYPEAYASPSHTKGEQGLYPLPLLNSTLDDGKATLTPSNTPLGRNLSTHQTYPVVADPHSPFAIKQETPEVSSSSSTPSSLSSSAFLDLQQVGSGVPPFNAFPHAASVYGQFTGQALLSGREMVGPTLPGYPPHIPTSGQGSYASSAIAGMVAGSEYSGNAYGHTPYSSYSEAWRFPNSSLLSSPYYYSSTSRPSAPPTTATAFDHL
Sequence of Fructose-bisphosphate aldolase (P9WQA3 whole entry): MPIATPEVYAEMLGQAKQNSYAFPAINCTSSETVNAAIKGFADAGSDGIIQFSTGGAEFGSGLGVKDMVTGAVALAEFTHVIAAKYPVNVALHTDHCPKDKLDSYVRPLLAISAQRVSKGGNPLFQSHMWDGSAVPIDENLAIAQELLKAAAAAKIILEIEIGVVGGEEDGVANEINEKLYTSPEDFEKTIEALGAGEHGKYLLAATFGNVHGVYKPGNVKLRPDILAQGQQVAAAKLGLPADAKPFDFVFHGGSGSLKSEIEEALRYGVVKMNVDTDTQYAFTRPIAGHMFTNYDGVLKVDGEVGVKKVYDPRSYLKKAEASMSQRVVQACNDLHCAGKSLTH
Sequence of Arf-GAP with SH3 domain, ANK repeat and PH domain-containing protein 1 (Q9ULH1 whole entry, the tested form may be a part): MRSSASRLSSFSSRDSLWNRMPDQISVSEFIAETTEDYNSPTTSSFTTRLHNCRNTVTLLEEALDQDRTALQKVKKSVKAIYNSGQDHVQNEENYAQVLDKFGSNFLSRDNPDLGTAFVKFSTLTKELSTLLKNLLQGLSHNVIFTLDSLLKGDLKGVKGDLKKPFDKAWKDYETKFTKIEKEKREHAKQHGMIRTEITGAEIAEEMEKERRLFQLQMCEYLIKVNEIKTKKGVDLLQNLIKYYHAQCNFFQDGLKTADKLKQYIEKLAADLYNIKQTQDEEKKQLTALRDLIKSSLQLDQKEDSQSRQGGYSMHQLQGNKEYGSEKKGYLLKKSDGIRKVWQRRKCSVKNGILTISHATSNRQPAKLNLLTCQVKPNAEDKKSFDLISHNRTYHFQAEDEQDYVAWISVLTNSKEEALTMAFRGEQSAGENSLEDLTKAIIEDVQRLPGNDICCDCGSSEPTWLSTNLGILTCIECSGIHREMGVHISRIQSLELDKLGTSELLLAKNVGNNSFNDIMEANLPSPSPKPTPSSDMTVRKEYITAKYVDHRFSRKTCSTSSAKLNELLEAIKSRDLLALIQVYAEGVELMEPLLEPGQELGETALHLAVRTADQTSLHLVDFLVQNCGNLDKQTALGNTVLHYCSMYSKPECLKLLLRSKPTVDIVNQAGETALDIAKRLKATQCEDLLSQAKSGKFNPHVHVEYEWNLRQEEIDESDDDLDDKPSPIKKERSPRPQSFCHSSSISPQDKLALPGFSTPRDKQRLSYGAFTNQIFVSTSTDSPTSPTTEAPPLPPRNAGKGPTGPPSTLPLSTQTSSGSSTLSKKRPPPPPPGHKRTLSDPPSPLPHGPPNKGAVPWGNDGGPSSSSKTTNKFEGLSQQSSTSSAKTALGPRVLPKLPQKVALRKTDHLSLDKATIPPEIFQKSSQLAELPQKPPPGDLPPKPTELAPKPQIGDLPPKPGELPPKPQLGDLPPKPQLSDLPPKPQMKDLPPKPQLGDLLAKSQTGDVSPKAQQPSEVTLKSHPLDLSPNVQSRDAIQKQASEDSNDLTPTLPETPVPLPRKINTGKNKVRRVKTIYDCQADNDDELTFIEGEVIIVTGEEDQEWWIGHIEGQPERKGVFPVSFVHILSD

Regarding `CCN(CC)CCCNC(=O)CCC(=O)Nc1ccc2nc(N3CCC(C)CC3)cc(C)c2c1`, in experiment [1], the IC50 is > 0.37 µM (active).

Consider `COc1ccccc1NS(=O)(=O)c1cc(NN=C(C(C)=O)C(=O)Nc2ccc(Cl)cc2)ccc1C`, for which the AC50 in experiment [2] is 36.6 µM (active).

Turning to `Cc1cc(N/C=C2/C(=O)N(c3ccc4c(c3)OCO4)C(=O)c3ccccc32)ccn1`, the EC50 is 188 µM (inconclusive) in [3] and 27.5 µM (active) in experiment [5]. In experiment [4], the IC50 is 22.1 µM (inactive).

Consider `COc1ccc(C(=O)NCCN2CCCC2)cc1OC1CCN(C(C)C)CC1`, for which the IC50 in experiment [6] is 1.84 µM (active).

`C[C@H]1CCCCO[C@H](CN(C)C(=O)C2CCCCC2)[C@@H](C)CN([C@@H](C)CO)C(=O)c2cc(NC(=O)Nc3ccc(F)cc3)ccc2O1`: the AC50 was 8.1 µM (active) in experiment [7] and 57.6 µM (active) in experiment [8].

For the molecule `CCC(NS(=O)(=O)c1c(C)nc(O)nc1O)C12CC3CC(CC(C3)C1)C2` (configuration not stated), the AC50 in experiment [9] is 7.79 µM (active); in experiment [10], 7.48 µM (active); in experiment [11], 11.8 µM (active); in experiment [12] it was 7.16 µM (active).
